Test results reported in patent US20230167127A1, “COMPOUNDS AND THEIR USE IN THE TREATMENT OF BACTERIAL INFECTION” (Hoffmann-La Roche Inc., priority 2020, published 2023).
Counter-ions that a name gives are not always drawn. Like-named read-outs stand apart in the source and are kept apart here.

Test system: Escherichia coli ATCC 25922
Assay: 50% growth inhibitory concentration (IC50) determination, Iso-Sensitest broth dilution
Format: cell-based
Settings: strain Escherichia coli ATCC 25922, 10-point broth dilution, optical density at 600 nm over 16 h, read-out: Escherichia coli growth inhibition IC50
How it was run: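 10-point twofold Iso-Sensitest broth dilution (e.g. 50 to 0.097 μM final) with DMSO stocks, incubated at 35±2° C. Growth followed by OD 600 nm every 20 min over 16 h; IC50 derived from growth inhibition during logarithmic phase.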

[1] = Escherichia coli, ATCC25922, 16 h

Row | SMILES | IC50 [1] [nM] | IC50 [nM]
1 | CNC(=O)COc1cc(C#N)c2c(c1)CC(CNCCC1CN(c3ccc4c(n3)NC(=O)CO4)C(=O)O1)C2 (centres unmarked) [Example 107, 2-[[7-cyano-2-[[2-[2-oxo-3-(3-oxo-4H-pyrido[3,2-b][1,4]oxazin-6-yl)-1,3-oxazolidin-5-yl]ethylamino]methyl]-2,3-dihydro-1H-inden-5-yl]oxy]-N-methylacetamide] | 235 | –
2 | Cc1nccc2c1CC(NCCCC1CN(c3ccc4c(n3)NC(=O)CO4)C(=O)O1)C2 (centres unmarked) [Example 94, 6-[5-[3-[(1-methyl-6,7-dihydro-5H-cyclopenta[c]pyridin-6-yl)amino]propyl]-2-oxo-1,3-oxazolidin-3-yl]-4H-pyrido[3,2-b][1,4]oxazin-3-one] | 485 | –
3 | N#Cc1c(OCC2CCCN2)ccc2c1CC(CNCCC1CN(c3ccc4c(n3)NC(=O)CO4)C(=O)O1)C2 (centres unmarked) [Example 141, 2-[[2-[2-oxo-3-(3-oxo-4H-pyrido[3,2-b][1,4]oxazin-6-yl)-1,3-oxazolidin-5-yl]ethylamino]methyl]-5-(pyrrolidin-2-ylmethoxy)-2,3-dihydro-1H-indene-4-carbonitrile; formic acid] | 186 | –
4 | CNc1cc2c(c(C)n1)CC(CNCCC1CN(c3ccc4c(n3)NC(=O)CO4)C(=O)O1)C2 (centres unmarked) [Example 420, 6-[5-[2-[[1-Methyl-3-(methylamino)-6,7-dihydro-5H-cyclopenta[c]pyridin-6-yl]methylamino]ethyl]-2-oxo-1,3-oxazolidin-3-yl]-4H-pyrido[3,2-b][1,4]oxazin-3-one] | 196 | –
5 | O=C1COc2ccc(N3CC(CCNCC4Cc5c(ccnc5Cl)C4O)OC3=O)nc2N1 (racemic) [Example 41, 6-[2-oxo-5-[2-[[rac-(5,6-trans)-1-chloro-5-hydroxy-6,7-dihydro-5H-cyclopenta[c]pyridin-6-yl]methylamino]ethyl]-1,3-oxazolidin-3-yl]-4H-pyrido[3,2-b][1,4]oxazin-3-one; formic acid] | 728 | –
6 | CC(C)(N)COc1cc(F)c2c(c1)CC(CNCC[C@@H]1CN(c3cnc4c(n3)NC(=O)CO4)C(=O)O1)C2 (stereo partly drawn) [Example 342, 6-[(5R)-5-[2-[[6-(2-amino-2-methylpropoxy)-4-fluoro-2,3-dihydro-1H-inden-2-yl]methylamino]ethyl]-2-oxo-1,3-oxazolidin-3-yl]-4H-pyrazino[2,3-b][1,4]oxazin-3-one; formic acid] | 180 | –
7 | Cc1nc(OCC2(N)CC2)cc2c1CC(CNCCC1CN(c3ccc4c(n3)NC(=O)CO4)C(=O)O1)C2 (centres unmarked) [Example 175, 6-[5-[2-[[3-[(1-aminocyclopropyl)methoxy]-1-methyl-6,7-dihydro-5H-cyclopenta[c]pyridin-6-yl]methylamino]ethyl]-2-oxo-1,3-oxazolidin-3-yl]-4H-pyrido[3,2-b][1,4]oxazin-3-one] | 193 | –
8 | Cc1nc(OCc2cc[nH]n2)c(F)c2c1CC(CNCCC1CN(c3cnc4c(n3)NC(=O)CO4)C(=O)O1)C2 (centres unmarked) [Example 415] | 221 | –
9 | CC(C)(CC1CN(c2ccc3c(n2)NC(=O)CO3)C(=O)O1)NCC1Cc2ccnc(Cl)c2C1 (centres unmarked) [Example 30, 6-[5-[2-[(1-chloro-6,7-dihydro-5H-cyclopenta[c]pyridin-6-yl)methylamino]-2-methylpropyl]-2-oxo-1,3-oxazolidin-3-yl]-4H-pyrido[3,2-b][1,4]oxazin-3-one; formic acid] | 3400 | –
10 | Cc1ncc(F)c2c1CC(CN1CCC3(CN(c4ccc5c(n4)NC(=O)CO5)C(=O)O3)C(CO)C1)C2 (centres unmarked) [Example 277, 6-[8-[(4-fluoro-1-methyl-6,7-dihydro-5H-cyclopenta[c]pyridin-6-yl)methyl]-6-(hydroxymethyl)-2-oxo-1-oxa-3,8-diazaspiro[4.5]decan-3-yl]-4H-pyrido[3,2-b][1,4]oxazin-3-one] | 628 | –
11 | CC(C)(N)COc1cc(F)c2c(c1)CC(CN1CCC3(CC1)CN(c1cnc4c(n1)NC(=O)CO4)C(=O)O3)C2 (single isomer, unassigned; enantiomer b) [Example 378, 6-[8-[[6-(2-Amino-2-methylpropoxy)-4-fluoro-2,3-dihydro-1H-inden-2-yl]methyl]-2-oxo-1-oxa-3,8-diazaspiro[4.5]decan-3-yl]-4H-pyrazino[2,3-b][1,4]oxazin-3-one; formic acid, Enantiomer B] | – | < 97.7
12 | N#Cc1cccc2c1CC(CNCCC1CN(c3ccc4c(n3)NC(=O)CO4)C(=O)O1)C2O (racemic) [Example 139, rac-1,2-trans-1-hydroxy-2-[[2-[2-oxo-3-(3-oxo-4H-pyrido[3,2-b][1,4]oxazin-6-yl)-1,3-oxazolidin-5-yl]ethylamino]methyl]-2,3-dihydro-1H-indene-4-carbonitrile] | 513 | –
13 | CNC(=O)COc1nc(C#N)c2c(c1C)CC(CNCCC1CN(c3ccc4c(n3)NC(=O)CO4)C(=O)O1)C2 (centres unmarked) [Example 221, 2-((1-Cyano-4-methyl-6-(((2-(2-oxo-3-(3-oxo-3,4-dihydro-2H-pyrido[3,2-b][1,4]oxazin-6-yl)oxazolidin-5-yl)ethyl)amino)methyl)-6,7-dihydro-5H-cyclopenta[c]pyridin-3-yl)oxy)-N-methylacetamide] | 302 | –
14 | Cc1nnc(C)c2c1CC(CNCCC1CN(c3ccc4c(n3)NC(=O)CS4)C(=O)O1)C2 (centres unmarked) [Example 285, 5-[2-[(1,4-dimethyl-6,7-dihydro-5H-cyclopenta[d]pyridazin-6-yl)methylamino]ethyl]-3-(3-oxo-4H-pyrido[3,2-b][1,4]thiazin-6-yl)-1,3-oxazolidin-2-one] | 925 | –

Results, then the compound that gave them:

Row | IC50 [1] [nM] | IC50 [nM] | SMILES
15 | < 97.7 | – | O=C1COc2ncc(N3CC(CCNCC4Cc5cc(OC6CNC6)cc(F)c5C4)OC3=O)nc2N1 (centres unmarked) [Example 358, 6-[5-[2-[[6-(azetidin-3-yloxy)-4-fluoro-2,3-dihydro-1H-inden-2-yl]methylamino]ethyl]-2-oxo-1,3-oxazolidin-3-yl]-4H-pyrazino[2,3-b][1,4]oxazin-3-one; hydrochloride]
16 | < 97.7 | – | NC(COc1cc(F)c2c(c1)CC(CNCCC1CN(c3ccc4c(n3)NC(=O)CO4)C(=O)O1)C2)C(=O)O (centres unmarked) [Example 267, 2-Amino-3-[[7-fluoro-2-[[2-[2-oxo-3-(3-oxo-4H-pyrido[3,2-b][1,4]oxazin-6-yl)-1,3-oxazolidin-5-yl]ethylamino]methyl]-2,3-dihydro-1H-inden-5-yl]oxy]propanoic acid; formic acid]
17 | < 97.7 | – | N#Cc1cccc2c1CC(CNCCC1CN(c3ccc4c(n3)NC(=O)CO4)C(=O)O1)C2 (centres unmarked) [Example 5, 2-[[2-[2-oxo-3-(3-oxo-4H-pyrido[3,2-b][1,4]oxazin-6-yl)-1,3-oxazolidin-5-yl]ethylamino]methyl]-2,3-dihydro-1H-indene-4-carbonitrile]
18 | < 97.7 | – | Cc1ncc(F)c2c1CC(CNCCC1CC(=O)N(c3ccc4c(n3)NC(=O)CO4)C1)C2 (centres unmarked) [Example 417, 6-[4-[2-[(4-Fluoro-1-methyl-6,7-dihydro-5H-cyclopenta[c]pyridin-6-yl)methylamino]ethyl]-2-oxopyrrolidin-1-yl]-4H-pyrido[3,2-b][1,4]oxazin-3-one]
19 | < 97.7 | – | N#Cc1cc(OCCN)cc2c1CC(CNCCC1CN(c3ccc4c(n3)NC(=O)CO4)C(=O)O1)C2 (centres unmarked) [Example 188, 6-(2-aminoethoxy)-2-[[2-[2-oxo-3-(3-oxo-4H-pyrido[3,2-b][1,4]oxazin-6-yl)-1,3-oxazolidin-5-yl]ethylamino]methyl]-2,3-dihydro-1H-indene-4-carbonitrile]
20 | 174 | – | N#Cc1cccc2c1CC(CNCCC1CN(c3ccc4c(n3)NC(=O)CO4)C(=O)O1)C2N (racemic) [Example 228, rac-1,2-trans-1-Amino-2-[[2-[2-oxo-3-(3-oxo-4H-pyrido[3,2-b][1,4]oxazin-6-yl)-1,3-oxazolidin-5-yl]ethylamino]methyl]-2,3-dihydro-1H-indene-4-carbonitrile]
21 | 103 | – | NCCOc1cc(Cl)c2c(c1)CC(NCCCC1CN(c3ccc4c(n3)NC(=O)CO4)C(=O)O1)C2 (centres unmarked) [Example 179, 6-[5-[3-[[6-(2-aminoethoxy)-4-chloro-2,3-dihydro-1H-inden-2-yl]amino]propyl]-2-oxo-1,3-oxazolidin-3-yl]-4H-pyrido[3,2-b][1,4]oxazin-3-one]
22 | 164 | – | N#Cc1cccc2c1CC(NCC(O)CC1CN(c3cnc4c(n3)NC(=O)CO4)C(=O)O1)C2 (single isomer, unassigned; isomer a) [Example 81, 2-[[2-hydroxy-3-[2-oxo-3-(3-oxo-4H-pyrazino[2,3-b][1,4]oxazin-6-yl)-1,3-oxazolidin-5-yl]propyl]amino]-2,3-dihydro-1H-indene-4-carbonitrile, Isomer A; formic acid]
23 | 99.4 | – | N#Cc1nccc2c1CC(CN[C@H]1C[C@@]3(CN(c4ccc5c(n4)NC(=O)CO5)C(=O)O3)C1)C2 (stereo partly drawn) [Example 104, 6-[[[2,4-trans-6-oxo-7-(3-oxo-4H-pyrido[3,2-b][1,4]oxazin-6-yl)-5-oxa-7-azaspiro[3.4]octan-2-yl]amino]methyl]-6.7-dihydro-5H-cyclopenta[c]pyridine-1-carbonitrile]
24 | < 97.7 | – | Cc1nc(C#N)c2c(c1F)CC(CNCCC1CN(c3cnc4c(n3)NC(=O)CO4)C(=O)O1)C2 (centres unmarked) [Example 363, 4-fluoro-3-methyl-6-[[2-[2-oxo-3-(3-oxo-4H-pyrazino[2,3-b][1,4]oxazin-6-yl)-1,3-oxazolidin-5-yl]ethylamino]methyl]-6,7-dihydro-5H-cyclopenta[c]pyridine-1-carbonitrile; formic acid]
25 | 127 | – | Cc1ncc(Cl)c2c1CC(CNCCC1CN(c3cnc4c(n3)NC(=O)CO4)C(=O)O1)C2N (racemic) [Example 263, 6-[2-oxo-5-[2-[[rac-5,6-trans-5-amino-4-chloro-1-methyl-6,7-dihydro-5H-cyclopenta[c]pyridin-6-yl]methylamino]ethyl]-1,3-oxazolidin-3-yl]-4H-pyrazino[2,3-b][1,4]oxazin-3-one]
26 | < 97.7 | – | Cc1ncc(F)c2c1CC(CCNCC1CN(c3cnc4c(n3)NC(=O)CO4)C(=O)O1)C2 (centres unmarked) [Example 265, 6-[5-[[2-(4-Fluoro-1-methyl-6,7-dihydro-5H-cyclopenta[c]pyridin-6-yl)ethylamino]methyl]-2-oxo-1,3-oxazolidin-3-yl]-4H-pyrazino[2,3-b][1,4]oxazin-3-one; formic acid]
